Laboratory results published in patent US4668690A, “1,2,3,4,4a,9b-hexahydro-4a-aminoalkyldibenzofurans useful as analgesics, anticonvulsants or antidepressants” (Hoechst Roussel Pharmaceuticals Inc., priority 1985, dated 1987).
Where a name gives a salt, the structure may show the parent alone. Read-outs that look alike come from different tables or passages of the source.

Key:
[1] = test system: phenyl-para-quinone induced writhing; assay: phenyl-para-quinone writhing assay in mice (analgesia); format: in vivo; settings: for inhibition in vivo at 25 mg/kg: 25 mg/kg subcutaneous; for ED50: read-out: ED50, inhibition of phenyl-para-quinone induced writhing
Source text: The compounds of the invention are primarily useful as analgesic, anticonvulsant and antidepressant agents. […] Exptl. Biol. Med., 95, 729 (1953)]. Listed below in Table I is the analgesic effect of some of the compounds of the invention, expressed as percent inhibition of phenyl-para-quinone induced writhing.

[2] = test system: supra maximal electroshock (extensor tonus); assay: supra maximal electroshock assay (anticonvulsant); format: in vivo, male mice (Charles River, CD-1); settings: for ED50: Mus musculus, sc, read-out: ED50, anticonvulsant effect (supra maximal electroshock)
[3] = test system: ptosis of tetrabenazine-induced depression; assay: inhibition of tetrabenazine-induced depression (ptosis) in mice (antidepressant); format: in vivo
[4] = Mus musculus, sc, subcutaneous, mice, 50% inhibition
[5] = subcutaneous, mice, 50% inhibition

With `CN(CCc1ccccc1)CC[C@@]12CCCC[C@@H]1c1ccccc1O2` (relative stereo) [cis-1,2,3,4,4a,9b-Hexahydro-4a-[2-(N-methyl-N-phenethyl)aminoethyl]dibenzofuran hydrochloride] the inhibition in vivo at 25 mg/kg ([1]; Mus musculus, sc, mice) was 63%.
Compound `CN(CCC[C@@]12CCCC[C@@H]1c1ccccc1O2)Cc1ccco1` (relative stereo) [cis-1,2,3,4,4a,9b-Hexahydro-4a-[3-(N-methyl-N-furfuryl)aminopropyl]dibenzofuran oxalate hydrate] has an inhibition in vivo at 25 mg/kg ([1]; Mus musculus, sc, mice) of 61%.
In the case of `CN1C(=O)CN=C(c2ccccc2)c2cc(Cl)ccc21` [Diazepam, reference compound], the “% Inhibition, anticonvulsant effect (supra maximal electroshock)” value (“% Inhibition, anticonvulsant effect” below) ([2]; 1.7 mg/kg subcutaneous, mice, standard) is reported as 50%.
`CN(CCCOc1ccccc1)CC[C@@]12CCCC[C@@H]1c1ccccc1O2` (relative stereo) [Cis-1,2,3,4,4a,9b-hexahydro-4a-[2-{N-methyl-N-(3-phenoxypropyl)}aminoethyl]dibenzofuran oxalate] was tested, and the inhibition in vivo at 25 mg/kg ([1]; Mus musculus, sc, mice) was 65%.
For `CN(CCC[C@@]12CCCC[C@@H]1c1ccccc1O2)CCc1ccccc1.Cl` (relative stereo) [cis-1,2,3,4,4a,9b-Hexahydro-4a-[3-(N-methyl-N-phenethylamino)propyl]dibenzofuran hydrochloride], the ED50 [1, 4] was 20.8 mg/kg and the “% Inhibition, anticonvulsant effect” value ([2]; 25 mg/kg subcutaneous, mice) was 50%.
`CNC1=Nc2ccc(Cl)cc2C(c2ccccc2)=[N+]([O-])C1` [Chlorodiazepoxide, reference compound] was tested, and the “% Inhibition, anticonvulsant effect” value ([2]; 8.0 mg/kg subcutaneous, mice, standard) was 50%.
Compound `CNC[C@@]12CCCC[C@@H]1c1ccccc1O2.Cl` (relative stereo) [cis-1,2,3,4,4a,9b-Hexahydro-4a-methylaminomethyldibenzofuran hydrochloride] has an ED50 [1, 4] of 25.8 mg/kg and an ED50 [2, 5] of 22.5 mg/kg.
`CCC(=O)O[C@](Cc1ccccc1)(c1ccccc1)[C@H](C)CN(C)C` [propoxyphene, reference compound] gave an inhibition in vivo at 3.9 mg/kg ([1]; Mus musculus, sc, read-out: % Inhibition of phenyl-para-quinone induced writhing) of 50%.
In the case of `CN(C)CCC=C1c2ccccc2CCc2ccccc21` [Amitriptyline, reference compound], the “% Inhibition of the ptosis of tetrabenazine-induced depression” value ([3]; 2.0 mg/kg intraperitoneal, standard) is reported as 50%.
For `CN(CCCc1ccccc1)CCC[C@@]12CCCC[C@@H]1c1ccccc1O2` (relative stereo) [cis-1,2,3,4,4a,9b-Hexahydro-4a-[3-(N-(3-phenylpropyl)-N-methyl)aminopropyl]dibenzofuran oxalate hydrate], the inhibition in vivo at 25 mg/kg ([1]; Mus musculus, sc, mice) was 37%.
With `CN(C)CCC[C@@]12CCCC[C@@H]1c1ccccc1O2.Cl` (relative stereo) [cis-4a-(Dimethylaminopropyl)-1,2,3,4,4a,9b-hexahydrodibenzofuran hydrochloride] the ED50 [1, 4] was 12.2 mg/kg and the ED50 [2, 5] was 28.1 mg/kg.
With `CN(C)CC[C@@]12CCCC[C@@H]1c1ccccc1O2.Cl` (relative stereo) [cis-4a-(2-Dimethylaminoethyl)-1,2,3,4,4a,9b-Hexahydrodibenzofuran hydrochloride] the “% Inhibition of the ptosis of tetrabenazine-induced depression” value ([3]; 20.0 mg/kg intraperitoneal) was 70%, the inhibition in vivo at 25 mg/kg ([1]; Mus musculus, sc, mice) was 67% and the ED50 [2, 5] was 22.4 mg/kg.
Compound `c1ccc2c(c1)O[C@]1(CCCN3CCCCC3)CCCC[C@H]21` (relative stereo) [cis-1,2,3,4,4a,9b-hexahydro-4a-(3-piperidinopropyl)dibenzofuran oxalate] has an inhibition in vivo at 25 mg/kg ([1]; Mus musculus, sc, mice) of 64%.
In the case of `CC(C)=CCN(C)CC[C@@]12CCCC[C@@H]1c1ccccc1O2` (relative stereo) [cis-1,2,3,4,4a,9b-Hexahydro-4a-[2-(N-(3-methyl-2-butenyl)-N-methyl)aminoethyl]dibenzofuran oxalate], the “% Inhibition of the ptosis of tetrabenazine-induced depression” value ([3]; 20.0 mg/kg intraperitoneal) is reported as 77%.
Work on `CNCCC[C@@]12CCCC[C@@H]1c1ccccc1O2` (relative stereo) [cis-1,2,3,4,4a,9b-Hexahydro-4a-(3-methylaminopropyl)dibenzofuran] yielded an ED50 ([3]; Mus musculus, ip, intraperitoneal, 50% inhibition) of 5.9 mg/kg, an inhibition in vivo at 25 mg/kg ([1]; Mus musculus, sc, mice) of 58% and an ED50 [2, 5] of 27.7 mg/kg.
For `CNCC[C@@]12CCCC[C@@H]1c1ccccc1O2.Cl` (relative stereo) [cis-1,2,3,4,4a,9b-Hexahydro-4a-(2-methylaminoethyl)dibenzofuran hydrochloride], the “% Inhibition of the ptosis of tetrabenazine-induced depression” value ([3]; 20.0 mg/kg intraperitoneal) was 60%, the ED50 ([1]; Mus musculus, sc) was 16.2 mg/kg and the ED50 [2] was 41.7 mg/kg.
Compound `CN(C)C[C@@]12CCCC[C@@H]1c1ccccc1O2.Cl` (relative stereo) [Cis-1,2,3,4,4a,9b-hexahydro-4a-dimethylaminomethyldibenzofuran hydrochloride] has an ED50 [1, 4] of 21.7 mg/kg.
With “cis-1,2,3,4,4a,9b-Hexahydro-4a-[2-[N-(3-phenylpropyl)-N-methylamino]ethyl]dibenzofuran oxalate hemihydrate” the “ED50, inhibition of phenyl-para-quinone induced writhing” value [1, 5] was 7.3 mg/kg.
